Results on three molecules are retold here after ChEMBL document CHEMBL3352537 (Bioorg Med Chem Lett, 2014).

The inhibition is the change of the read-out against control, counted positive when it falls. Lower therefore signals little suppression.

Series [1] can be described thus: Antioxidant activity assessed as DPPH scavenging activity at 5 to 20 uM after 15 mins by UV-visible spectrophotometry. The class given is physicochemical. A general note: The DPPH test is a chemical assay of radical scavenging.
Series [2] is described as follows: Antioxidant activity assessed as superoxide anion radical scavenging activity at 5 to 20 uM by xanthine/xanthine oxidase assay. Type of series: physicochemical.
For series [3], the target named is Prostaglandin G/H synthase 1 (Homo sapiens) (UniProt P23219). Briefly: Inhibition of COX1 (unknown origin) using arachidonic acid as substrate at […] after 10 mins by luminometry.
In series [4] the target is Transcription factor p65 (Homo sapiens) (UniProt Q04206). Briefly: Inhibition of LPS-induced NF-kappaB p65 activation in human THP1 cells preincubated at 10 uM for 15 mins before LPS treatment measured after 16 hrs. The class given is cell-based. Particulars: THP-1; call rule not given here.
Sequence of Transcription factor p65 (Homo sapiens) (Q04206 whole entry): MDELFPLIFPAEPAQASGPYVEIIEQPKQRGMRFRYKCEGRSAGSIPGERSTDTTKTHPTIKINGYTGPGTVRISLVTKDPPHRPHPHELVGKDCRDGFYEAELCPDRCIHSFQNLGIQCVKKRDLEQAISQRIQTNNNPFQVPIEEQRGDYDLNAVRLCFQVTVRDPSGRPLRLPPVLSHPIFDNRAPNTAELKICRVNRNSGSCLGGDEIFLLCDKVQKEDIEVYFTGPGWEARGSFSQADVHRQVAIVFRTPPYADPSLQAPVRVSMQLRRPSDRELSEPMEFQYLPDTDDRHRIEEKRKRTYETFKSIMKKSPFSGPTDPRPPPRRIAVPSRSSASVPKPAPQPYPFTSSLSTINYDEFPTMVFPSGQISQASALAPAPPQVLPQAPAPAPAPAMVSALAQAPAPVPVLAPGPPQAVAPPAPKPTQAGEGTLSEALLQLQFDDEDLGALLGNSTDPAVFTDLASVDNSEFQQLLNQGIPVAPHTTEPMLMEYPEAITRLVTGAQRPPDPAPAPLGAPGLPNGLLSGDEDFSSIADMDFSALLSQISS

Sequence of Prostaglandin G/H synthase 1 (Homo sapiens) (P23219 whole entry): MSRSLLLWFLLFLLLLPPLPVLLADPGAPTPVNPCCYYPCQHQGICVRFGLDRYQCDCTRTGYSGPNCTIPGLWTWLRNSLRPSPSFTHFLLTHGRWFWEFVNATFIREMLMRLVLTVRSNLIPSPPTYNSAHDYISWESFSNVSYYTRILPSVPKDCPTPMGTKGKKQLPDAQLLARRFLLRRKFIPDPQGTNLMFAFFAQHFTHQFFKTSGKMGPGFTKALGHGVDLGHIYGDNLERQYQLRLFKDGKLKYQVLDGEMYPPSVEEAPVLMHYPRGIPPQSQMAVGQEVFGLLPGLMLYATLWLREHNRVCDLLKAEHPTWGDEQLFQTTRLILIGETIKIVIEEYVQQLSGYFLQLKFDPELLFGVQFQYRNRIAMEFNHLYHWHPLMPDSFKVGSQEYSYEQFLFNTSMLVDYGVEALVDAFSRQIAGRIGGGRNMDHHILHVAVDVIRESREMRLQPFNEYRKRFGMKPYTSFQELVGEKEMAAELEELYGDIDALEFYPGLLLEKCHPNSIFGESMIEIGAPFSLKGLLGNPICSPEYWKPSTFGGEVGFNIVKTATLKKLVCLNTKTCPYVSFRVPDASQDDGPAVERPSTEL

Turning to `COc1cc(C(=O)O)ccc1O` [VANILLIC ACID], the outcome in series [1] was Active.
For `Oc1ccc(CCNCc2ccc(O)c(O)c2)cc1`, the Activity result in series [1] is “Active”; in series [2] it was 33%. Besides, the inhibition in series [3] turned out to be 51%; in series [4], 23%.
Regarding `O=C(O)c1ccc(O)cc1` [PARABEN], the result in series [1] was Active.
